# Data from US20150352094A1, “USE OF FATTY ACID NIACIN CONJUGATES FOR TREATING DISEASES” (CATABASIS PHARMACEUTICALS, INC., priority 2013, published 2015).
# Tests used:
# [1] = system: Male C57BL/6 mice; experiment: Liver weight gain induced by Lomitapide 10 mg/kg in mice on high fat cholesterol diet; format: in vivo
# Source text: The objective of this example is to determine if 1-8, a representative compound of the present invention, can abrogate the development of hepatic steatosis induced by oral administration of the MTP inhibitor Lomitapide for 7 days in normal mice.
# Male C57BL/6 mice were acclimated to the high fat cholesterol diet (D13093001; 1% cholesterol, 15% cacao butter, 40.5% sucrose and 1% corn oil (Research Diets, Inc. New Brunswick, N.J.) upon arrival at CRO facility. The test diet containing the compound (I-8) sufficient for approx. 3 kg of diet (i.e. 25 g of 1-8 from the invention), was prepared by adding the test compound to melted, hand warm cocoa butter and mixed for 5 min. This mix was then added to the master mix (containing the rest of the ingredients) and mixed thoroughly. The diet was frozen to −20° C. On the subsequent day, the diet was broken into small pellets (approx 5 g per piece) and freeze dried, and stored in vacuum sealed bags (approx 500 g) at −20° C. until used. This diet was designated D13093002. The diets were refreshed daily and unused diet is discarded. Lomitapide delivered via oral gavage formulation (10 mg/kg once daily) or vehicle was dosed as described in Table 1. The volume of each gavage dose delivered (mL/kg) was based on each individual animal's most recent recorded body weight. […]
# [2] = system: ApoA1 secretion in HepG2 cultures; settings: media supernatants of HepG2 cultures (Jin et al. 1997); cited from earlier work
# [3] = system: ApoB secretion in HepG2 cultures; settings: media supernatants of HepG2 cultures (Jin et al. 1999); cited from earlier work
# [4] = system: ApoA1 (apolipoprotein A1); experiment: SREBP-1c target gene expression in HepG2 cells (real time PCR): ApoA1; format: cell-based; settings: HepG2 cells stimulated with oleate, 50 μM, 6 hours
# Method: (§1) HepG2 cells (ATCC) were seeded at 20,000 cells per well in 96 well plates. After adhering overnight, growth media (10% FBS in DMEM) was removed and cells were serum starved for 24 hours in DMEM containing 1% fatty acid free bovine serum albumin (BSA, Sigma). […] Cells were incubated for 6 hours and then washed with PBS. RNA was reverse-transcribed using the cells to cDNA reagents according to standard protocols (outlined in Applied Biosystem StepOne Real-time PCR protocols). Real time PCR of transcripts was performed with Taqman assays for the three specific genes FASN (fatty acid synthase), SCD (steroyl CoA desaturase) and ApoA1 (apolipoprotein A1). In all three cases, 18S-VIC® was used as a normalization control.
# [5] = system: female APOE*3Leiden mice; experiment: Plasma cholesterol and triglycerides in APOE*3Leiden mice on high cholesterol Western type diet; format: in vivo; settings: I-8 0.75% w/w in diet, atorvastatin 0.0015% w/w in diet
# Method: The study was conducted using female APOE*3Leiden mice (groups of each n=10) and one untreated reference control group on chow (n=5). To induce dyslipidemia, a high cholesterol Western type diet containing 1% cholesterol, 15% cacao butter, 40.5% sucrose and 1% corn oil (WTD) was fed to the mice for a total experimental period of 20 weeks (of which 4 weeks are a run-in period).
# The dyslipidemic mice were grouped on the basis of plasma cholesterol at t=0 assayed in 4 h fasting blood. Mice with low cholesterol after the run-in period were excluded so that homogenous experimental groups were obtained. A group of reference mice (n=5) remained on a chow diet during the complete study period (normolipidemic reference mice).
# This mix was then added to the master mix (containing the rest of the ingredients) and mixed thoroughly. The diet was frozen to −20° C. On the subsequent day, the diet was broken into small pellets (approx 5 g per piece) and freeze dried, and stored in vacuum sealed bags (approx 500 g) at −20° C. until use. The diets were refreshed daily and unused diet was discarded.
# EDTA plasma was collected in weeks −4, 0, 2 and 4 weeks.
# [6] = system: mice; experiment: Liver weight gain induced by Lomitapide 1 and 3 mg/kg in mice on high fat cholesterol diet (second study); format: in vivo; settings: I-8 0.75% in diet from Day -7 with Lomitapide 1 or 3 mg/kg once daily, Days 1-7
# Method: A second study was conducted with a longer predosing of 1-8 (7 days versus 3 days) and lower doses of Lomitapide (1 and 3 mg/kg once daily) as described in Table 2. Starting on Day −7 the animals in Groups 1, 2, and 4 received a high-fat cholesterol diet (D13093001, Research Diets, Inc. New Brunswick, N.J.). Similarly, starting on Day −7 the animals in Groups 3 and 5 received a high-fat cholesterol diet w/0.75% 1-8 (D13093002, Research Diets, Inc.). On day −1 all mice received an oral gavage dose of vehicle. The baseline blood sample were collected from each mouse 90 minutes after the vehicle dose and stored as plasma. The volume of each gavage dose delivered (mL/kg) was based on each individual animal's most recent recorded body weight.
# Observations were recorded at least twice daily and at each sample collection time point. The presence or absence of any clinical abnormalities was recorded. Body weights were recorded on Day −7, and daily on Day −1 through Day 7 (AM). Interim blood samples were collected and a terminal blood sample was collected on Day 7 by intracardiac puncture following anesthetization with CO2. Each whole blood sample was transferred into tubes containing sodium heparin anticoagulant and placed on ice until processing. Each whole blood sample was centrifuged at 2200×g for 10 minutes at 5° C.+3° C. to isolate plasma. […]
# [7] = system: FASN (fatty acid synthase); experiment: SREBP-1c target gene expression in HepG2 cells (real time PCR): FASN; format: cell-based; settings: HepG2 cells stimulated with oleate, 50 μM, 6 hours
# Method: as §1
# [8] = system: Healthy human volunteers; experiment: Plasma triglycerides in healthy human volunteers after NIH high fat breakfast; format: in vivo
# Method: Healthy human volunteers were divided into 4 treatment groups. The first treatment group was a placebo group (n=6). The other three groups consisted a single oral dose of compound I-8 at either 300 mg (n=6), 1000 mg (n=7) or 2000 mg (n=4). All subjects were given an NIH high fat breakfast in order to induce an elevated level of triglycerides (In a typical NIH high fat breakfast, 450 calories are derived from fat). Compound I-8 was then administered as a single oral dose at the three indicated doses at three different time points: immediately following the high fat meal, 2 hours following the high fat meal and 4 hours following the high fat meal. At each of the time points, plasma triglyceride levels were determined according to standard protocols. […] Based on these dramatic effects on plasma triglycerides levels, compound I-8 and other fatty acid niacin conjugates disclosed in this invention are useful for the treatment of type I hyperlipoproteinemia and type 5 hyperlipoproteinemia.
# [9] = system: SCD (steroyl CoA desaturase); experiment: SREBP-1c target gene expression in HepG2 cells (real time PCR): SCD; format: cell-based; settings: HepG2 cells stimulated with oleate, 50 μM, 6 hours
# Method: as §1
# [10] = system: ApoB secretion in HepG2 cells; settings: HepG2 cells, 50, 100 and 200 μM; compared to niacin at 5 mM
# Method: HepG2 cells (ATCC) are seeded at 10,000 cells per well in 96 well plates. After adhering overnight, growth media (10% FBS in DMEM) is removed and cells are serum starved for 24 hours in DMEM containing 0.1% fatty acid free bovine serum albumin (BSA, Sigma). Cells are then treated with a compound. […] All treatments are performed in triplicate. Simultaneous with compound treatment, ApoB secretion is stimulated with addition of 0.1 oleate complexed to fatty acid free BSA in a 5:1 molar ratio. Incubation with a compound and oleate is conducted for 24 hours. Media supernatants are removed and ApoB concentrations are measured using ELISA kits (Mabtech AB). Percent inhibition of ApoB secretion is determined by normalizing data to vehicle treated wells. For a given compound, an IC50 (concentration at which 50% of ApoB secretion is inhibited) can also be determined by using a 4 parameter-fit inhibition curve model (Graph Pad Prism®). In each experiment, cell viability is determined using the ATPlite 1-Step kit (Perkin Elmer), such that compound effects due to cytotoxicity can be monitored.
structure (smiles),measurement,setting,value
"O=C(NC1CCN(CCCCC2(C(=O)NCC(F)(F)F)c3ccccc3-c3ccccc32)CC1)c1ccccc1-c1ccc(C(F)(F)F)cc1 [Lomitapide, reference compound]",increase in liver weight,"[1]; Lomitapide alone 10 mg/kg once daily oral gavage, one week, high fat cholesterol diet",15%
O=C(O)c1cccnc1 [niacin],secretion of ApoA1,[2],increase
same,secretion of ApoB,[3],inhibiting
"CC/C=C\C/C=C\C/C=C\C/C=C\C/C=C\CCCC(=O)NCCNC(=O)c1cccnc1 [Compound I-8, N-(2-(5Z,8Z,11Z,14Z,17Z)-eicosa-5,8,11,14,17-pentaenamidoethyl)nicotinamide]",Lomitapide-increased liver weight on cotreatment,"[1]; I-8 0.75% in diet with Lomitapide 10 mg/kg once daily, 7 days",completely abrogated
same,ApoA1 gene expression,[4],increase
same,plasma cholesterol,[5]; after 4 weeks of treatment,Comparable level of cholesterol reduction
same,plasma triglycerides,[5]; after 4 weeks of treatment,significant reduction
same,plasma cholesterol,[5]; t=2 weeks of treatment,statistically significant reduction
same,Lomitapide-increased liver weight on cotreatment,[6],reduced
same,FASN gene expression,[7],statistically significant inhibition
same,reduction in triglycerides,[8]; 2 hour time point following the high fat meal,robust signal was still observed
same,reduction in triglycerides,[8]; 4 hour time point following the high fat meal,robust signal was still observed
same,plasma triglycerides,"[8]; single oral dose 1000 mg, after NIH high fat breakfast",significant reduction
same,plasma triglycerides,"[8]; single oral dose 2000 mg, after NIH high fat breakfast",significant reduction
same,effect on plasma triglycerides,"[8]; single oral dose 300, 1000 or 2000 mg, after NIH high fat breakfast",dose-dependent effect
same,SCD gene expression,[9],statistically significant inhibition
"CC/C=C\C/C=C\C/C=C\C/C=C\C/C=C\C/C=C\CCC(=O)NCCNC(=O)c1cccnc1 [Compound I-7, N-(2-(4Z,7Z,10Z,13Z,16Z,19Z)-docosa-4,7,10,13,16,19-hexaenamidoethyl)nicotinamide]",ApoA1 gene expression,[4],increase
same,FASN gene expression,[7],statistically significant inhibition
same,inhibition of ApoB secretion,[10],significant inhibition
same,SCD gene expression,[9],statistically significant inhibition
